# From patent US4086196A, “Parathyroid hormone” (Armour Pharmaceutical Company, priority 1975, dated 1978)
# Key:
# [1] = tested on: adenylate cyclase in rat renal cortical homogenates; assay: In vitro rat kidney adenylate cyclase bioassay; type: biochemical; details: mean potency with 95% confidence limits; against house standard Sephadex-BPTH calibrated to MRC Standard A
# Description: (§1) In vitro bioassays based on the activation of adenylate cyclase in rat renal cortical homogenates were carried out by the procedure of Marcus and Aurbach (Endocrinology, (1969), 85, 801-810). In vivo bioassays were performed by the method of Parsons, Reit and Robinson (Endocrinology, (1973), 92, 454-462), a procedure based on increase in the serum calcium in the chick after intravenous injection. A house standard of highly purified bovine parathyroid hormone ("Sephadex-BPTH") calibrated against Medical Research Council Standard A (National Institute for Medical Research, London, England) was used for both in vivo and in vitro assays. The biological activities of the synthetic HPTH-(1-34), and the native HPTH-(1-84)-peptides in the in vitro rat kidney adenylate cyclase assay and the in vivo chick hypercalcemia assay are shown in Table 2. Included for comparison are the corresponding data on the native bovine-(1-84) and the synthetic bovine-(1-34) peptides, as well as the analogue [Ala^1 ]-HPTH-(1-34).
# [2] = tested on: serum calcium in the chick; assay: In vivo chick hypercalcemia bioassay; details: mean potency with 95% confidence limits; intravenous injection; against house standard Sephadex-BPTH calibrated to MRC Standard A
# Description: as §1
# [3] = bioassay systems in vivo and in vitro; cited from earlier work
Molecule,In vitro Rat kidney adenylate cyclase [1],In vivo Chick hypercalcemia [2],potency relative to whole bovine parathyroid hormone [3]
CC[C@H](C)[C@H](NC(=O)[C@H](CCC(=O)O)NC(=O)[C@H](CO)NC(=O)[C@@H](NC(=O)[C@@H](N)CO)C(C)C)C(=O)N[C@@H](CCC(N)=O)C(=O)N[C@@H](CC(C)C)C(=O)N[C@@H](CCSC)C(=O)N[C@@H](Cc1c[nH]cn1)C(=O)N[C@@H](CC(N)=O)C(=O)N[C@@H](CC(C)C)C(=O)NCC(=O)N[C@@H](CCCCN)C(=O)N[C@@H](Cc1c[nH]cn1)C(=O)N[C@@H](CC(C)C)C(=O)N[C@@H](CC(N)=O)C(=O)N[C@@H](CO)C(=O)N[C@@H](CCSC)C(=O)N[C@@H](CCC(=O)O)C(=O)N[C@@H](CCCNC(=N)N)C(=O)N[C@H](C(=O)N[C@@H](CCC(=O)O)C(=O)N[C@@H](Cc1c[nH]c2ccccc12)C(=O)N[C@@H](CC(C)C)C(=O)N[C@@H](CCCNC(=N)N)C(=O)N[C@@H](CCCCN)C(=O)N[C@@H](CCCCN)C(=O)N[C@@H](CC(C)C)C(=O)N[C@@H](CCC(N)=O)C(=O)N[C@@H](CC(=O)O)C(=O)N[C@H](C(=O)N[C@@H](Cc1c[nH]cn1)C(=O)N[C@@H](CC(N)=O)C(=O)N[C@@H](Cc1ccccc1)C(=O)O)C(C)C)C(C)C [HPTH-(1-34)],1030 (930-1140) MRCU/mg,7400(5700-9700) MRCU/mg,
CC[C@H](C)[C@H](NC(=O)[C@H](CCC(=O)O)NC(=O)[C@H](CO)NC(=O)[C@@H](NC(=O)[C@H](C)N)C(C)C)C(=O)N[C@@H](CCC(N)=O)C(=O)N[C@@H](CC(C)C)C(=O)N[C@@H](CCSC)C(=O)N[C@@H](Cc1c[nH]cn1)C(=O)N[C@@H](CC(N)=O)C(=O)N[C@@H](CC(C)C)C(=O)NCC(=O)N[C@@H](CCCCN)C(=O)N[C@@H](Cc1c[nH]cn1)C(=O)N[C@@H](CC(C)C)C(=O)N[C@@H](CC(N)=O)C(=O)N[C@@H](CO)C(=O)N[C@@H](CCSC)C(=O)N[C@@H](CCC(=O)O)C(=O)N[C@@H](CCCNC(=N)N)C(=O)N[C@H](C(=O)N[C@@H](CCC(=O)O)C(=O)N[C@@H](Cc1c[nH]c2ccccc12)C(=O)N[C@@H](CC(C)C)C(=O)N[C@@H](CCCNC(=N)N)C(=O)N[C@@H](CCCCN)C(=O)N[C@@H](CCCCN)C(=O)N[C@@H](CC(C)C)C(=O)N[C@@H](CCC(N)=O)C(=O)N[C@@H](CC(=O)O)C(=O)N[C@H](C(=O)N[C@@H](Cc1c[nH]cn1)C(=O)N[C@@H](CC(N)=O)C(=O)N[C@@H](Cc1ccccc1)C(=O)O)C(C)C)C(C)C [[Ala^1]-HPTH-(1-34)],4085(3550-4700) MRCU/mg,4600(3500-6000) MRCU/mg,
BPTH-(1-34): synthetic peptide corresponding to 1-34 residues of bovine parathyroid hormone [reference compound],5400(3900-8000) MRCU/mg,7700(5200-11100) MRCU/mg,equipotent
HPTH-(1-84) (native): native human parathyroid hormone (1-84),350 (275-425) MRCU/mg,,
"BPTH-(1-84) (native): native bovine parathyroid hormone (1-84) (protein, UniProt P01268 32-115, looked up, Parathyroid hormone) Parathyroid hormone: AVSEIQFMHNLGKHLSSMERVEWLRKKLQDVHNFVALGASIAYRDGSSQRPRKKEDNVLVESHQKSLGEADKADVDVLIKAKPQ",3000(2500-4000) MRCU/mg,2500(2100-4000) MRCU/mg,
